The data set is described as follows: Dissociation constant, pKa of the compound. The class given is physicochemical.

The text below walks through data of ChEMBL document CHEMBL2069217, “Self-organizing molecular field analysis of NSAIDs: assessment of pharmacokinetic and physicochemical properties using 3D-QSPkR approach” (Eur J Med Chem, 2012).

Turning to `CC1=C(CC(=O)O)c2cc(F)ccc2/C1=C\c1ccc([S+](C)[O-])cc1` (stereo not drawn), the pKa came to 4.5.

The compound `CC(C(=O)O)c1ccc2oc(-c3ccc(Cl)cc3)nc2c1` (stereo not drawn) [BENOXAPROFEN] registered a pKa of 6.9.

As for `CC(C(=O)O)c1ccc2c(c1)[nH]c1ccc(Cl)cc12` (stereo not drawn) [CARPROFEN], the pKa was determined as 4.7.

On to `Cc1cccc(Nc2ccccc2C(=O)O)c1C` [MEFENAMIC ACID], for which the pKa turned out to be 4.2.

In turn, `O=C(O)CCc1nc(-c2ccccc2)c(-c2ccccc2)o1` [OXAPROZIN] came in with a pKa of 4.3.

For the compound `CCCCC1C(=O)N(c2ccccc2)N(c2ccc(O)cc2)C1=O` (stereo not drawn) [OXYPHENBUTAZONE ANHYDROUS], the pKa is 4.7.

On to `CC(C(=O)O)c1ccc(C(=O)c2cccs2)cc1` (stereo not drawn) [SUPROFEN], for which the pKa is 4.

`Cc1cc(CC(=O)O)n(C)c1C(=O)c1ccc(Cl)cc1` [ZOMEPIRAC] gave a pKa of 4.7.

The term pKa denotes the pH at which an ionisable group is half protonated.
